What was measured:
[1] = Cytotoxicity against human HeLa cells assessed as reduction in cell viability after 3 days by ATPlite assay
[2] = Metabolic stability in human liver microsomes assessed as compound metabolized after 15 mins; type: ADME, Microsome; conditions: read-out: Drug metabolism

Structure (SMILES) | metabolised at 0.25 h [2] | CC50 at 72 h [1]
CS(=O)(=O)CCCn1c(Cn2c(=O)n(C3CC3)c3ccncc32)cc2cc(C(F)(F)F)ccc21 |  | > 50 µM
O=C(O)CCCn1c(Cn2c(=O)n(C3CC3)c3ccncc32)cc2cc(Cl)ccc21 |  | > 50 µM
COc1ccc(-n2c(=O)n(Cc3cc4cc(Cl)ccc4n3CCCC#N)c3cnccc32)cc1C | 33% | > 50 µM
CS(=O)(=O)CCCn1c(Cn2c(=O)n(C3CC3)c3ccncc32)cc2cc(F)ccc21 |  | > 50 µM
Cc1ccc(-n2c(=O)n(Cc3cc4cc(Cl)ccc4n3CCCC#N)c3cnccc32)cc1 | 36% | > 50 µM
N#CCCCn1c(Cn2c(=O)n(-c3ccc(OC(F)(F)F)cc3)c3ccncc32)cc2cc(Cl)ccc21 | 0% | > 50 µM
CS(=O)(=O)CCCn1c(Cn2c(=O)n(C3CC3)c3ccncc32)cc2cc(Br)ccc21 |  | > 50 µM
N#CCCCn1c(Cn2c(=O)n(-c3ccc(C(=O)O)cc3)c3ccncc32)cc2cc(Cl)ccc21 | 9% | > 50 µM
COc1ccc(-n2c(=O)n(Cc3cc4cc(Cl)ccc4n3CCCC#N)c3cnccc32)c(F)c1 | 17% | > 50 µM
O=c1n(Cc2cc3cc(F)ccc3n2CCCCO)c2cnccc2n1C1CC1 |  | > 50 µM
NC(=O)CCCn1c(Cn2c(=O)n(C3CC3)c3ccncc32)cc2cc(Cl)ccc21 |  | > 50 µM
COc1ccc2c(c1)cc(Cn1c(=O)n(C3CC3)c3ccncc31)n2CCCCO |  | > 50 µM
O=c1n(Cc2cc3cc(Br)ccc3n2CCCCO)c2cnccc2n1C1CC1 |  | > 50 µM
O=c1n(Cc2cc3ccc(Cl)cc3n2CCCCO)c2cnccc2n1C1CC1 |  | > 50 µM
CC(C)CCn1c(Cn2c(=O)n(C3CC3)c3ccncc32)cc2cccnc21 |  | > 100 µM

Second part, led by results:

metabolised at 0.25 h [2] | Structure (SMILES) | CC50 at 72 h [1]
15% | CS(=O)(=O)CCCn1c(Cn2c(=O)n(C3CN(S(C)(=O)=O)C3)c3ccncc32)cc2cc(Cl)ccc21 | > 50 µM
66% | CS(=O)(=O)CCCn1c(Cn2c(=O)n(CC#N)c3ccncc32)cc2cc(Cl)ccc21 | > 50 µM
99% | O=c1n(Cc2cc3cc(Cl)ccc3n2CCCN2CCOCC2)c2cnccc2n1C1CC1 | > 50 µM
44% | CC(C)CCn1c(Cn2c(=O)n(C3CC3)c3ccncc32)cc2cnccc21 | > 50 µM
37% | N=C(CCCn1c(Cn2c(=O)n(C3CC3)c3ccncc32)cc2cc(Cl)ccc21)NO | > 50 µM
2% | CC(n1c(=O)n(Cc2cc3cc(Cl)ccc3n2CCCS(C)(=O)=O)c2cnccc21)C(F)(F)F (configuration not stated) | > 50 µM
49% | Cn1ccc(-n2c(=O)n(Cc3cc4cc(Cl)ccc4n3CCCC#N)c3cnccc32)n1 | > 50 µM
37% | O=c1n(Cc2cc3cc(Cl)ccc3n2CCCCF)c2cnccc2n1C1CC1 | > 50 µM
0% | O=c1n(Cc2nc3nc(Cl)ccc3n2CCCCF)c2cnccc2n1C1CC1 | > 50 µM
24% | N#CCCCn1c(Cn2c(=O)n(-c3ccc(C(=O)NC4CC4)cc3)c3ccncc32)cc2cc(Cl)ccc21 | > 50 µM
45% | N#CCCCn1c(Cn2c(=O)n(-c3ncco3)c3ccncc32)cc2cc(Cl)ccc21 | > 50 µM
14% | CS(=O)(=O)CCCn1c(Cn2c(=O)n(C3CNC3)c3ccncc32)cc2cc(Cl)ccc21 | > 50 µM
49% | O=c1n(Cc2cc3cc(Cl)ccc3n2CCCCO)c2cnccc2n1C1CC1 | > 50 µM
0% | O=c1n(Cc2nc3nc(Cl)ccc3n2CCCCO)c2cnccc2n1C1CC1 | > 50 µM
56% | CC(C)(O)CCCn1c(Cn2c(=O)n(C3CC3)c3ccncc32)cc2cc(Cl)ccc21 | > 50 µM
32% | CS(=O)(=O)CCCn1c(Cn2c(=O)n(C3CC3)c3ccncc32)cc2cnccc21 | > 50 µM
